From patent US11033535B2, “Oxadiazoles and thiadiazoles as TGF-β inhibitors” (Southern Research Institute, priority 2017, dated 2021)
Where two headings read alike, the source gives them in different places.

Test: Pharmacokinetic evaluation following a single oral and intravenous administration
Assay type: in vivo, CD1 mouse
Method: A NMP stock solution was prepared by adding 1.136 mL of NMP to 5.68 mg of compound no. 42140 with vortexing and sonification, to obtain a solution with a concentration at 5 mg/mL of 42140:01. Next, to prepare an intravenous formulation, 0.100 mL of the 5 mg/mL stock solution was placed in a new vial. 0.100 mL of NMP and 0.400 mL of PEG400 were added with vortexing and sonification, followed by addition of 0.400 mL of saline with vortexing and sonification. […] 42140:01. Alternatively, to prepare an oral formulation, 0.200 mL of the 5 mg/mL stock solution was placed in a new vial. 0.400 mL of PEG400 was added with vortexing and sonification, followed by addition of 0.400 mL of saline with vortexing and sonifiction. […] 42140:01.
(§1) Briefly, the desired serial concentrations of working solutions were achieved by diluting a stock solution of the compound with 100% acetonitrile. 3 μL of working solutions (5, 10, 20, 50, 100, 500, 1000, 5000, 10000 ng/mL) were added to 30 μL of the blank CD1 mouse plasma to achieve calibration standards of 0.5-1000 ng/mL (0.5, 1, 2, 5, 10, 50, 100, 500, 1000 ng/mL) in a total volume of 33 μL. Five quality control samples at 1 ng/mL, 2 ng/mL, 5 ng/mL, 50 ng/mL and 800 ng/mL for plasma were prepared independently of those used for the calibration curves. These QC samples were prepared on the day of analysis in the same way as calibration standards.
Next, 33 μL standards, 33 μL QC samples, and 33 μL unknown samples (30 μL plasma with 3 μL blank solution) were added to 200 μL of acetonitrile containing IS mixture for precipitating protein, respectively. Then the samples were vortexed for 30 s. After centrifugation at 4 degree Celsius, 4000 rpm for 15 min, 3 μL of supernatant was injected into the LC/MS/MS system for quantitative analysis.
HPLC analysis was performed using 100% water with 0.1% formic acid (Solution A) and 100% acetonitrile with 0.1% formic acid (Solution B) with a flow rate of 0.6 mL/min.
A NMP stock solution was prepared by adding 2.092 mL of NMP to 10.46 mg of […] with vortexing and sonification, to obtain a solution with a concentration at 5 mg/mL of […]. Next, to prepare an intravenous formulation, 0.100 mL of the 5 mg/mL stock solution was placed in a new vial. 0.100 mL of NMP and 0.400 mL of PEG400 were added with vortexing and sonification, followed by addition of 0.400 mL of saline with vortexing and sonification. […] 42320:01. Alternatively, to prepare an oral formulation, 0.200 mL of the 5 mg/mL stock solution was placed in a new vial. 0.400 mL of PEG400 was added with vortexing and sonification, followed by addition of 0.400 mL of saline with vortexing and sonifiction. […] 42320:01.
as §1, with “50 ng/mL,” for “50 ng/mL”

[1] = CD1, mouse, plasma, po, 5 mg/kg, Table 11, PO Dose: 5 mg/kg, Mouse 4, read-out: Concentration
[2] = CD1, mouse, plasma, po, 5 mg/kg, Table 11, PO Dose: 5 mg/kg, Mouse 5, read-out: Concentration
[3] = CD1, mouse, plasma, po, 5 mg/kg, Table 11, PO Dose: 5 mg/kg, Mouse 6, read-out: Concentration
[4] = CD1, mouse, plasma, po, 5 mg/kg, Table 11, PO Dose: 5 mg/kg, mean, read-out: Concentration, Mean
[5] = Table 10, IV Dose: 1 mg/kg, Mouse 1
[6] = Table 10, IV Dose: 1 mg/kg, Mouse 2
[7] = Table 10, IV Dose: 1 mg/kg, Mouse 3
[8] = Table 10, IV Dose: 1 mg/kg, mean
[9] = Table 12, PO Dose: 5 mg/kg, Mouse 4
[10] = Table 12, PO Dose: 5 mg/kg, Mouse 5
[11] = Table 12, PO Dose: 5 mg/kg, Mouse 6
[12] = Table 12, PO Dose: 5 mg/kg, mean

concentration at 2 h [1]: 165 ng/mL
concentration at 2 h [2]: 100 ng/mL
concentration at 2 h [3]: 105 ng/mL
concentration at 2 h [4]: 123 ng/mL
concentration at 4 h [1]: 88.4 ng/mL
concentration at 4 h [2]: 64.2 ng/mL
concentration at 4 h [3]: 77.7 ng/mL
concentration at 4 h [4]: 76.8 ng/mL
concentration at 8 h [1]: 49 ng/mL
concentration at 8 h [2]: 37.2 ng/mL
concentration at 8 h [3]: 37.4 ng/mL
concentration at 8 h [4]: 41.2 ng/mL
concentration at 24 h (CD1, mouse, plasma, po, 5 mg/kg, Table 11, PO Dose: 5 mg/kg, 24 h, Mouse 6, read-out: Concentration): 3.26 ng/mL
AUC(0-inf) (CD1, mouse, plasma, po, 5 mg/kg, Table 12, PO Dose: 5 mg/kg, Mouse 4, read-out: AUCInf): 1110 ng·h/mL
AUC(0-t) (CD1, mouse, plasma, po, 5 mg/kg, Table 12, PO Dose: 5 mg/kg, Mouse 4, read-out: AUClast): 856 ng·h/mL
Cmax (CD1, mouse, plasma, po, 5 mg/kg, Table 12, PO Dose: 5 mg/kg, Mouse 4, read-out: Cmax): 201 ng/mL
MRT inf (CD1, mouse, plasma, po, 5 mg/kg, Table 12, PO Dose: 5 mg/kg, Mouse 4, read-out: MRTInf—obs): 5.27 h
half-life (CD1, mouse, plasma, po, 5 mg/kg, Table 12, PO Dose: 5 mg/kg, Mouse 4, read-out: T1/2 (converted)): 3.56 h
AUC(0-inf) (CD1, mouse, plasma, po, 5 mg/kg, Table 12, PO Dose: 5 mg/kg, Mouse 5, read-out: AUCInf): 801 ng·h/mL
AUC(0-t) (CD1, mouse, plasma, po, 5 mg/kg, Table 12, PO Dose: 5 mg/kg, Mouse 5, read-out: AUClast): 569 ng·h/mL
Cmax (CD1, mouse, plasma, po, 5 mg/kg, Table 12, PO Dose: 5 mg/kg, Mouse 5, read-out: Cmax): 121 ng/mL
MRT inf (CD1, mouse, plasma, po, 5 mg/kg, Table 12, PO Dose: 5 mg/kg, Mouse 5, read-out: MRTInf—obs): 6.33 h
half-life (CD1, mouse, plasma, po, 5 mg/kg, Table 12, PO Dose: 5 mg/kg, Mouse 5, read-out: T1/2 (converted)): 4.31 h
AUC(0-inf) (CD1, mouse, plasma, po, 5 mg/kg, Table 12, PO Dose: 5 mg/kg, Mouse 6, read-out: AUCInf): 961 ng·h/mL
AUC(0-t) (CD1, mouse, plasma, po, 5 mg/kg, Table 12, PO Dose: 5 mg/kg, Mouse 6, read-out: AUClast): 940 ng·h/mL
Cmax (CD1, mouse, plasma, po, 5 mg/kg, Table 12, PO Dose: 5 mg/kg, Mouse 6, read-out: Cmax): 122 ng/mL
MRT inf (CD1, mouse, plasma, po, 5 mg/kg, Table 12, PO Dose: 5 mg/kg, Mouse 6, read-out: MRTInf—obs): 5.84 h
half-life (CD1, mouse, plasma, po, 5 mg/kg, Table 12, PO Dose: 5 mg/kg, Mouse 6, read-out: T1/2 (converted)): 4.42 h
AUC(0-inf) (CD1, mouse, plasma, po, 5 mg/kg, Table 12, PO Dose: 5 mg/kg, mean, read-out: AUCInf, Mean): 956 ng·h/mL
AUC(0-t) (CD1, mouse, plasma, po, 5 mg/kg, Table 12, PO Dose: 5 mg/kg, mean, read-out: AUClast, Mean): 788 ng·h/mL
Cmax (CD1, mouse, plasma, po, 5 mg/kg, Table 12, PO Dose: 5 mg/kg, mean, read-out: Cmax, Mean): 148 ng/mL
MRT inf (CD1, mouse, plasma, po, 5 mg/kg, Table 12, PO Dose: 5 mg/kg, mean, read-out: MRTInf—obs, Mean): 5.81 h
half-life (CD1, mouse, plasma, po, 5 mg/kg, Table 12, PO Dose: 5 mg/kg, mean, read-out: T1/2, Mean (converted)): 4.1 h
Tmax (CD1, plasma, Table 12, PO Dose: 5 mg/kg, Mouse 4): 0.5 h
Concentration (Table 9, IV Dose: 1 mg/kg, 24 h, Mouse 1): BLOQ
Concentration (Table 9, IV Dose: 1 mg/kg, 24 h, Mouse 2): BLOQ
Concentration (Table 9, IV Dose: 1 mg/kg, 24 h, Mouse 3): BLOQ
AUClast/D [5]: 169 h·ng/mL per mg/kg
AUC—% Extrap—obs [5]: 7.32%
Cl_obs [5]: 91.3 mL/min/kg
AUClast/D [6]: 153 h·ng/mL per mg/kg
AUC—% Extrap—obs [6]: 7.31%
Cl_obs [6]: 101 mL/min/kg
AUClast/D [7]: 172 h·ng/mL per mg/kg
AUC—% Extrap—obs [7]: 10.6%
Cl_obs [7]: 86.3 mL/min/kg
AUClast/D, Mean [8]: 165 h·ng/mL per mg/kg
AUC—% Extrap—obs, Mean [8]: 8.4%
C0, Mean [8]: 100 ng/mL
Cl_obs, Mean [8]: 93 mL/min/kg
Concentration (Table 11, PO Dose: 5 mg/kg, 24 h, Mouse 4): BLOQ
Concentration (Table 11, PO Dose: 5 mg/kg, 24 h, Mouse 5): BLOQ
AUClast/D [9]: 171 h·ng/mL per mg/kg
AUC—% Extrap—obs [9]: 22.7%
F [9]: 104%
AUClast/D [10]: 114 h·ng/mL per mg/kg
AUC—% Extrap—obs [10]: 28.9%
F [10]: 69.0%
AUClast/D [11]: 188 h·ng/mL per mg/kg
AUC—% Extrap—obs [11]: 2.16%
F [11]: 107%
AUClast/D, Mean [12]: 158 h·ng/mL per mg/kg
AUC—% Extrap—obs, Mean [12]: 17.9%
F, Mean [12]: 93%
Compound: CC(=O)N[C@@H](Cc1ccc(CN(C)C)cc1)c1nnc(-c2cccc(OC(F)(F)F)c2)s1 [Compound 42320, N-(2-(4-((dimethylamino)methyl)phenyl)-1-(5-(3-(trifluoromethoxy)phenyl)-1,3,4-thiadiazol-2-yl)ethyl)acetamide]
